Values of other authors in US4606909A, “Pharmaceutical multiple-units formulation” (priority 1981, dated 1986).

Details: ambient temperature
For CC(=O)S[C@@H]1CC2=CC(=O)CC[C@]2(C)[C@H]2CC[C@@]3(C)[C@@H](CC[C@@]34CCC(=O)O4)[C@H]12 [spironolactone], the “parts by volume of water required to dissolve 1 part by weight of the substance” value (from here on “parts by volume of water required”) is listed as “more than 1000 parts by volume of water”. For C[C@]12CC[C@H]3[C@@H](CCC4=CC(=O)CC[C@@]43C)[C@@H]1CC[C@@H]2O [testosterone], the “parts by volume of water required” value is given as “more than 1000 parts by volume of water”. For CCCCNC(=O)NS(=O)(=O)c1ccc(C)cc1 [tolbutamide], the “parts by volume of water required” value is listed as “more than 1000 parts by volume of water”.
